Measurements from patent US20220008359A1, “COMBINATION ANTI-CANCER PRODUCTS AND METHODS” (priority 2020, published 2022).
Marks after values point to notes of the source that are not given here.

Columns and labels:
Format in all cases: cell-based, human
[1] = system: H1975 cells (wild type sensitive); assay: In-cell immunostaining of protein expression and phosphorylation, H1975 wild type cells; set-up: HDAC 1 expression / HDAC 2 expression / HDAC 3 expression / HDAC 4 expression / HDAC 5 expression / HDAC 6 expression / HDAC 7 expression / HDAC 8 expression / HDAC 9 expression / HDAC 10 expression / HDAC 11 expression: scale not given here; conditions: 6 h
Method: (§1) […] Cells were fixed in place 6 hours after treatment and immunostaining of single cells performed to determine the levels of each protein/phosphor-protein (n=3+/−SD). * p<0.05 less than vehicle control; # p<0.05 greater than vehicle control.
(§2) Assessments of protein expression and protein phosphorylation. Multi-channel fluorescence HCS microscopes perform true in-cell western blotting. Three independent cultures derived from three thawed vials of cells of a tumor were sub-cultured into individual 96-well plates. Twenty-four hours after plating, the cells are transfected with a control plasmid or a control siRNA, or with an empty vector plasmid or with plasmids to express various proteins. After another 24 hours, the cells are ready for drug exposure(s). At various time-points after the initiation of drug exposure, cells are fixed in place using paraformaldehyde and using Triton X100 for permeabilization. Standard immunofluorescent blocking procedures are employed, followed by incubation of different wells with a variety of validated primary antibodies and subsequently validated fluorescent-tagged secondary antibodies are added to each well. The microscope determines the background fluorescence in the well and in parallel randomly determines the mean fluorescent intensity of 100 cells per well.

[2] = system: afatinib-resistant (AR) H1975 cells; assay: In-cell immunostaining of protein expression and phosphorylation, afatinib-resistant H1975 cells; conditions: 1975 AR; 6 h; GZ17-6.02 2 mM final curcumin, pemetrexed 500 nM; vehicle 100%
Method: as §1
(§3) Generation of erlotinib, afatinib and osimertinib-resistant cells. Cells were incubated in vitro with increasing concentrations of vehicle control or erlotinib or osimertinib until after ˜6 weeks the HCC827 and H1975 and H1650 cells grew with similar kinetics to sensitive cells in either erlotinib ([…]) or osimertinib ([…]), respectively. Afatinib-resistant cells were created in vivo by repeated high dosing until tumors disappeared and then regrew, as previously described.
as §2

[3] = system: osimertinib-resistant (OR) H1650 cells; assay: In-cell immunostaining of protein expression and phosphorylation, osimertinib-resistant H1650 cells; conditions: 6 h, VEH = 100
Method: as §3, §2

[4] = 1975 WT, GZ17-6.02 2 mM final curcumin, pemetrexed 500 nM
[5] = 1975 WT, GZ17-6.02 2 mM final curcumin, pemetrexed 500 nM, vehicle 100%

**Q.** For Nc1nc2[nH]cc(CCc3ccc(C(=O)N[C@@H](CCC(=O)O)C(=O)O)cc3)c2c(=O)[nH]1 [PEM, Pemetrexed], which ERK2 expression [1, 4] is on record?
**A.** Its ERK2 expression is 100.

**Q.** What about the “HDAC 1 expression” value [1, 4] of the same compound?
**A.** Its value is 99.

**Q.** And the “HDAC 2 expression” value [1, 4]?
**A.** The value was 93.

**Q.** And the “HDAC 3 expression” value [1, 4]?
**A.** The value was 100.

**Q.** And the “HDAC 4 expression” value [1, 4]?
**A.** The value was 100.

**Q.** What about the “HDAC 5 expression” value [1, 4] of the same compound?
**A.** Its value is 98.

**Q.** What about the “HDAC 6 expression” value [1, 4] of the same compound?
**A.** The value was 88.

**Q.** And the “HDAC 7 expression” value [1, 4]?
**A.** The value was 98.

**Q.** And the “HDAC 8 expression” value [1, 4]?
**A.** Its value is 101.

**Q.** And the “HDAC 9 expression” value [1, 4]?
**A.** Its value is 99.

**Q.** What about the “HDAC 10 expression” value [1, 4] of the same compound?
**A.** Its value is 102.

**Q.** And the “HDAC 11 expression” value [1, 4]?
**A.** Its value is 101.

**Q.** What about the ATG5 [1, 5] of the same compound?
**A.** The ATG5 was 109%.

**Q.** What about the Beclin1 [1, 5] of the same compound?
**A.** The Beclin1 was 112%.

**Q.** What about the CD95 [1, 5] of the same compound?
**A.** The CD95 was 100%.

**Q.** And the CHOP [1, 5]?
**A.** Its CHOP is 107%.

**Q.** And the ERBB1 [1, 5]?
**A.** Its ERBB1 is 101%.

**Q.** And the ERBB2 [1, 5]?
**A.** The ERBB2 was 101%.

**Q.** And the ERBB3 [1, 5]?
**A.** Its ERBB3 is 99%.

**Q.** And the ERBB4 [1, 5]?
**A.** Its ERBB4 is 100%.

**Q.** What about the ERK2 [1, 5] of the same compound?
**A.** The ERK2 was 99%.

**Q.** What about the FAS-L [1, 5] of the same compound?
**A.** Its FAS-L is 108%.

**Q.** And the GRP78 [1, 5]?
**A.** Its GRP78 is 112%.

**Q.** What about the JAK2 [1, 5] of the same compound?
**A.** Its JAK2 is 102%.

**Q.** What about the “P-AKT T308” value [1, 5] of the same compound?
**A.** Its value is 87* %.

**Q.** What about the “P-AMPKα T172” value [1, 5] of the same compound?
**A.** Its value is 105%.

**Q.** What about the “P-ATG13 S318” value [1, 5] of the same compound?
**A.** The value was 104%.

**Q.** What about the “P-ATM S1980” value [1, 5] of the same compound?
**A.** The value was 108%.

**Q.** And the P-B1 [1, 5]?
**A.** Its P-B1 is 88%.

**Q.** What about the P-B2 [1, 5] of the same compound?
**A.** The P-B2 was 96%.

**Q.** And the P-B3 [1, 5]?
**A.** The P-B3 was 95%.

**Q.** And the P-B4 [1, 5]?
**A.** Its P-B4 is 100%.

**Q.** What about the P-ERK1/2 [1, 5] of the same compound?
**A.** Its P-ERK1/2 is 95%.

**Q.** What about the P-JAK2 [1, 5] of the same compound?
**A.** Its P-JAK2 is 91%.

**Q.** What about the “P-NFκB S536” value [1, 5] of the same compound?
**A.** Its value is 85* %.

**Q.** What about the P-PDGFRβ [1, 5] of the same compound?
**A.** Its P-PDGFRβ is 90%.

**Q.** What about the “P-PERK T980” value [1, 5] of the same compound?
**A.** Its value is 103%.

**Q.** And the “P-SRC Y416” value [1, 5]?
**A.** The value was 94%.

**Q.** And the “P-SRC Y527” value [1, 5]?
**A.** The value was 109%.

**Q.** What about the “P-STAT3 Y705” value [1, 5] of the same compound?
**A.** The value was 88%.

**Q.** What about the “P-STAT5 Y694” value [1, 5] of the same compound?
**A.** The value was 91%.

**Q.** And the “P-ULK1 S317” value [1, 5]?
**A.** The value was 105%.

**Q.** And the “P-ULK1 S757” value [1, 5]?
**A.** The value was 91%.

**Q.** And the P-c-MET [1, 5]?
**A.** Its P-c-MET is 94%.

**Q.** And the P-c-MT [1, 5]?
**A.** The P-c-MT was 94%.

**Q.** And the “P-eIF2α S51” value [1, 5]?
**A.** Its value is 103%.

**Q.** And the “P-mTOR S2448” value [1, 5]?
**A.** The value was 96%.

**Q.** And the “P-mTOR S2481” value [1, 5]?
**A.** Its value is 91%.

**Q.** And the PDGFRβ [1, 5]?
**A.** Its PDGFRβ is 100%.

**Q.** What about the PP1 [1, 5] of the same compound?
**A.** The PP1 was 109%.

**Q.** What about the c-KIT [1, 5] of the same compound?
**A.** The c-KIT was 99%.

**Q.** And the c-MET [1, 5]?
**A.** The c-MET was 100%.

**Q.** What about the “p70 S6K” value [1, 5] of the same compound?
**A.** The value was 101%.

**Q.** What about the “p70 S6K T389” value [1, 5] of the same compound?
**A.** Its value is 99%.

**Q.** And the BCL-XL expression ([1]; H1975 WT, VEH = 100)?
**A.** The BCL-XL expression was 87*.

**Q.** What about the ERK2 expression ([1]; H1975 WT, VEH = 100) of the same compound?
**A.** Its ERK2 expression is 100.

**Q.** And the FLIP-s expression ([1]; H1975 WT, VEH = 100)?
**A.** The FLIP-s expression was 101.

**Q.** What about the MCL-1 expression ([1]; H1975 WT, VEH = 100) of the same compound?
**A.** Its MCL-1 expression is 81*.

**Q.** And the ATG5 [2]?
**A.** Its ATG5 is 107%.

**Q.** What about the Beclin1 [2] of the same compound?
**A.** The Beclin1 was 111%.

**Q.** And the CD95 [2]?
**A.** The CD95 was 101%.

**Q.** And the CHOP [2]?
**A.** Its CHOP is 104%.

**Q.** What about the ERBB1 [2] of the same compound?
**A.** Its ERBB1 is 101%.

**Q.** And the ERBB2 [2]?
**A.** The ERBB2 was 100%.

**Q.** And the ERBB3 [2]?
**A.** Its ERBB3 is 99%.

**Q.** What about the ERBB4 [2] of the same compound?
**A.** The ERBB4 was 100%.

**Q.** And the ERK2 [2]?
**A.** The ERK2 was 99%.

**Q.** And the FAS-L [2]?
**A.** The FAS-L was 108%.

**Q.** And the GRP78 [2]?
**A.** Its GRP78 is 109%.

**Q.** And the JAK2 [2]?
**A.** Its JAK2 is 100%.

**Q.** And the “P-AKT T308” value [2]?
**A.** The value was 88%.

**Q.** What about the “P-AMPKα T172” value [2] of the same compound?
**A.** The value was 107%.

**Q.** What about the “P-ATG13 S318” value [2] of the same compound?
**A.** The value was 105%.

**Q.** What about the “P-ATM S1980” value [2] of the same compound?
**A.** The value was 108%.

**Q.** What about the P-B1 [2] of the same compound?
**A.** The P-B1 was 93%.

**Q.** And the P-B2 [2]?
**A.** The P-B2 was 97%.

**Q.** And the P-B3 [2]?
**A.** The P-B3 was 97%.

**Q.** What about the P-B4 [2] of the same compound?
**A.** Its P-B4 is 96%.

**Q.** What about the P-ERK1/2 [2] of the same compound?
**A.** The P-ERK1/2 was 98%.

**Q.** What about the P-JAK2 [2] of the same compound?
**A.** Its P-JAK2 is 87* %.

**Q.** What about the “P-NFκB S536” value [2] of the same compound?
**A.** Its value is 98%.

**Q.** And the P-PDGFRβ [2]?
**A.** The P-PDGFRβ was 84* %.

**Q.** And the “P-PERK T980” value [2]?
**A.** The value was 102%.

**Q.** What about the “P-SRC Y416” value [2] of the same compound?
**A.** Its value is 92%.

**Q.** What about the “P-SRC Y527” value [2] of the same compound?
**A.** The value was 109%.

**Q.** What about the “P-STAT3 Y705” value [2] of the same compound?
**A.** Its value is 95%.

**Q.** What about the “P-STAT5 Y694” value [2] of the same compound?
**A.** Its value is 94%.

**Q.** What about the “P-ULK1 S317” value [2] of the same compound?
**A.** Its value is 105%.

**Q.** And the “P-ULK1 S757” value [2]?
**A.** The value was 95%.

**Q.** And the P-c-MET [2]?
**A.** The P-c-MET was 102%.

**Q.** And the P-c-MT [2]?
**A.** The P-c-MT was 88%.

**Q.** What about the “P-eIF2α S51” value [2] of the same compound?
**A.** Its value is 103%.

**Q.** And the “P-mTOR S2448” value [2]?
**A.** The value was 95%.

**Q.** What about the “P-mTOR S2481” value [2] of the same compound?
**A.** The value was 83* %.

**Q.** And the PDGFRβ [2]?
**A.** The PDGFRβ was 100%.

**Q.** What about the PP1 [2] of the same compound?
**A.** Its PP1 is 104%.

**Q.** And the c-KIT [2]?
**A.** Its c-KIT is 101%.

**Q.** And the c-MET [2]?
**A.** Its c-MET is 100%.

**Q.** And the “p70 S6K” value [2]?
**A.** The value was 100%.

**Q.** What about the “p70 S6K T389” value [2] of the same compound?
**A.** Its value is 97%.

**Q.** What about the BCL-XL expression [3] of the same compound?
**A.** Its BCL-XL expression is 85*.

**Q.** And the ERK2 expression [3]?
**A.** The ERK2 expression was 100.

**Q.** And the FLIP-s expression [3]?
**A.** The FLIP-s expression was 93.

**Q.** And the MCL-1 expression [3]?
**A.** The MCL-1 expression was 86*.
